Assay results as given in patent publication US20260167638A1, “PHARMACEUTICAL COMPOUND, SALTS THEREOF, FORMULATIONS THEREOF, AND METHODS OF MAKING AND USING SAME” (Genentech, Inc., priority 2018, published 2026).
Values joined by “and” are separate entries in the source; they are usually repeats but may differ in a detail not shown here. Equal values may be shown once. Read-outs that look alike come from different tables or passages of the source.

What was measured:
[1] = Example 20 crossover pharmacokinetics of two oral tablet formulations in dogs under fed conditions; assay type: in vivo, beagle dogs; set-up: Plasma concentration of Compound I at 24 hours / Plasma concentration of Compound I at 36 hours / Plasma concentration of Compound I at 0.5 hours / Plasma concentration of Compound I at 1 hour / Plasma concentration of Compound I at 2 hours: unit: ng/mL; details: 200 mg tablet PO
Protocol: Pharmacokinetics parameters of formulations of Compound I and its salts in dogs were determined by orally administering a test formulation tablet at 200 mg of active (Compound I or salt) per dog.
Blood samples were taken at various times after administration, plasma prepared, and submitted to analysis for parent drug using a qualified LC-MS-MS assay. Pharmacokinetics parameters derived from the plasma analytical data were determined using non-compartmental analysis.
Pharmacokinetics of Compound I were determined in pentagastrin-pretreated male beagle dogs following a single oral (PO) administration at 200 mg/tablet/dog in a 2-phase crossover study with a washout period of at least 7 days in between each phase. Six male, non-naive, purebred beagle dogs were used in each phase of the 2-phase crossover study. All dogs were pretreated with pentagastrin (6 μg/kg intramuscular administrations) approximately 30 minutes before test article administration.
Two tablet formulations (nanosuspension and mono-tosylate salt, as described above) of test article were assessed. Phase 1 animals were given tablets containing Compound I nanosuspension. Phase 2 animals were given tablets containing Compound I mono-tosylate salt. Animals in both phases were fasted overnight through approximately 4 hours postdose, and received a 100-mL volume of homogenized Food and Drug Administration (FDA) high fat diet by oral gavage at approximately 30 minutes prior to test article administration, followed by a 7 to 10-mL flush with water. Blood samples were collected pre-dose and at 0.25. 0.5, 1. 2. 4. 8, 24, 36, and 48 hours after the oral dose. Plasma was harvested, and the concentration of Compound I in each plasma sample was determined by an LC/MS/MS assay. The assay lower limit of quantitation was 20 ng/mL for Compound I.
Mean Compound I concentrations measured in plasma were used to construct semi-logarithmic plasma concentration-time curves (FIG. 14). Pharmacokinetic analysis was performed using non-compartmental methods.

[2] = Solubility in pure water at 25° C. with PXRD of solid residues; assay type: physicochemical
Protocol: Using a similar strategy as described above, these salts were prepared by evaporation from a solution of free base and acid in a solvent (e.g., methanol-dichloromethane 1:1, ethyl acetate-dichloromethane 1:2, isopropanol, and the like). If necessary, an amorphous salt produced in this way was crystallized by stirring the amorphous material in an appropriate solvent (e.g., ethyl acetate, acetonitrile, and the like).

[3] = Approximate solubility in MeOH/MTBE at room temperature; assay type: physicochemical; details: organic solvent or mixture
Protocol: The approximate solubility of mono-tosylate Type A was measured in MeOH/MTBE at room temperature. […] To achieve appropriate volumetric efficiency and yield, the starting concentration in MeOH was 250 mg/mL and the final ratio of the anti-solvent crystallization process in MeOH/MTBE (v/v) was 1:3.

[4] = Example 20, fed dogs (high fat diet), individual subjects, mono-tosylate salt
[5] = Example 20, fed dogs, individual subjects, LLOQ 20 ng/mL, mono-tosylate salt
[6] = male, beagle, dog, plasma, po, 200 mg, Example 20, fed dogs (high fat diet), mean

With `Cc1ccc(S(=O)(=O)O)cc1.Cn1cc(-c2cn(-c3ccc(OC(F)(F)F)cc3)c(=O)c3ncn(C)c23)cn1` [mono-tosylate, 1-methyl-7-(1-methyl-1H-pyrazol-4-yl)-5-(4-(trifluoromethoxy)phenyl)-1,5-dihydro-4H-imidazo[4,5-c]pyridin-4-one, mono-tosylate salt] the AUC0-last [1, 4] was 59000 ng·h/mL and 75300 ng·h/mL and 68500 ng·h/mL and 26200 ng·h/mL and 16000 ng·h/mL and 47500 ng·h/mL, the AUC0-rt [1, 4] was 59700 ng·h/mL and 70100 ng·h/mL and 26200 ng·h/mL and 47700 ng·h/mL and the Cmax [1, 4] was 5340 ng/mL and 8590 ng/mL and 5160 ng/mL and 4930 ng/mL and 3490 ng/mL and 5080 ng/mL. For the same compound, the “Plasma concentration of Compound I at 48 hours” value ([1]; Example 20, fed dogs, individual subjects, LLOQ 20 ng/mL) was “BLQ”, the “Plasma concentration of Compound I at 0.25 hours” value [1, 5] was “BLQ (4×) and 381 and 41.0” and the “Plasma concentration of Compound I at 1 hour” value [1, 5] was 107 and 6070 and 2340 and 3330 and 1200 and 97.9. The “Plasma concentration of Compound I at 2 hours” value [1, 5] was 2010 and 8270 and 5160 and 4930 and 2020 and 5080, the “Plasma concentration of Compound I at 4 hours” value [1, 5] was 5340 and 8590 and 4020 and 3770 and 3490 and 4530 and the “Plasma concentration of Compound I at 8 hours” value [1, 5] was 3240 and 4900 and 1480 and 1020 and 1200 and 2920. The “Plasma concentration of Compound I at 48 hours” value ([1]; Example 20, fed dogs, mean, LLOQ 20 ng/mL) was “BLQ”, the tmax ([1]; male, beagle, dog, plasma, po, 200 mg, Example 20, fed dogs (high fat diet), individual subjects) was 4 h and the AUC(0-t) [1, 6] was 48800 ng·h/mL. For the same compound, the tmax [1, 6] was 3 h, the AUC ([1]; male, beagle, dog, plasma, po, 200 mg, Example 20, fed dogs (high fat diet), mean, read-out: AUC0-rt) was 50900 ng·h/mL and the Cmax ([1]; male, beagle, dog, plasma, po, 200 mg, Example 20, fed dogs (high fat diet), mean, read-out: Cmax) was 5430 ng/mL. The concentration at 0.25 h ([1]; male, beagle, dog, plasma, po, 200 mg/tablet/dog, Example 20, fed dogs, mean, LLOQ 20 ng/mL, read-out: Plasma concentration of Compound I at 0.25 hours) was 70.3 ng/mL, the concentration at 0.5 h ([1]; male, beagle, dog, plasma, po, 200 mg/tablet/dog, Example 20, fed dogs, mean, LLOQ 20 ng/mL, read-out: Plasma concentration of Compound I at 0.5 hours) was 717 ng/mL and the concentration at 1 h ([1]; male, beagle, dog, plasma, po, 200 mg/tablet/dog, Example 20, fed dogs, mean, LLOQ 20 ng/mL, read-out: Plasma concentration of Compound I at 1 hour) was 2190 ng/mL. It also gave a concentration at 2 h ([1]; male, beagle, dog, plasma, po, 200 mg/tablet/dog, Example 20, fed dogs, mean, LLOQ 20 ng/mL, read-out: Plasma concentration of Compound I at 2 hours) of 4580 ng/mL, a concentration at 4 h ([1]; male, beagle, dog, plasma, po, 200 mg/tablet/dog, Example 20, fed dogs, mean, LLOQ 20 ng/mL, read-out: Plasma concentration of Compound I at 4 hours) of 4960 ng/mL and a concentration at 8 h ([1]; male, beagle, dog, plasma, po, 200 mg/tablet/dog, Example 20, fed dogs, mean, LLOQ 20 ng/mL, read-out: Plasma concentration of Compound I at 8 hours) of 2460 ng/mL. The concentration at 24 h ([1]; male, beagle, dog, plasma, po, 200 mg/tablet/dog, Example 20, fed dogs, mean, LLOQ 20 ng/mL, read-out: Plasma concentration of Compound I at 24 hours) was 847 ng/mL, the concentration at 36 h ([1]; male, beagle, dog, plasma, po, 200 mg/tablet/dog, Example 20, fed dogs, mean, LLOQ 20 ng/mL, read-out: Plasma concentration of Compound I at 36 hours) was 79.7 ng/mL and the “pH (24 hrs)” value ([2]; pH of solubility sample, pure water, 25° C., 24 hours) was 1.53. For the same compound, the “pH (1 hr)” value ([2]; pH of solubility sample, pure water, 25° C., one hour) was 1.47, the “S 24 hrs” value ([2]; pure water, 25° C., 24 hours equilibration) was 1.24 mg/mL and the “S 1 hr” value ([2]; pure water, 25° C., one hour) was 2.54 mg/mL. For the same compound, the solubility at 24 h ([2]; water, 25 °C, water, thermodynamic from solid, Table 5: free base and crystalline salt forms) was 1240 µg/mL, the solubility ([3]; MeOH/MTBE (v/v, 1:2), read-out: approximate solubility in MeOH/MTBE (v/v, 1:2)) was 9300 to 18600 µg/mL and the solubility ([3]; MeOH/MTBE (v/v, 1:3), read-out: approximate solubility in MeOH/MTBE (v/v, 1:3)) was less than 5400 µg/mL. It also gave a solubility ([3]; methanol, read-out: approximate solubility in MeOH) of 264000 to 348000 µg/mL.
